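In this assay, cells in 96-well plates receive the compound at five concentrations for 48 hours. Endpoints are linearly interpolated between the surrounding concentrations. The concentration for 50% growth inhibition is given as GI50.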 Active and inactive are the calls of the source. No stated cut-off is given here; in the data, active = GI50 up to about 1.1 µM and inactive = higher.
Assays:
Assay in all cases: NCI anticancer screen, dose series, 48 h
UACC-257 = tested on: UACC-257
SK-MEL-2 = tested on: SK-MEL-2
SR = tested on: SR
OVCAR-8 = tested on: OVCAR-8
SK-OV-3 = tested on: SK-OV-3
NCI-H460 = tested on: NCI-H460
SF-268 = tested on: SF-268
OVCAR-3 = tested on: OVCAR-3
LOX IMVI = tested on: LOX IMVI
NCI-H226 = tested on: NCI-H226
NCI-H522 = tested on: NCI-H522
UACC-62 = tested on: UACC-62
K562 = tested on: K562
OVCAR-5 = tested on: OVCAR-5
CCRF-CEM = tested on: CCRF-CEM
LXFL 529 = tested on: LXFL 529
HOP-18 = tested on: HOP-18
IGROV-1 = tested on: IGROV-1
HL-60 = tested on: HL-60
HCT-116 = tested on: HCT-116
RPMI-8226 = tested on: RPMI-8226
SF-295 = tested on: SF-295
MOLT-4 = tested on: MOLT-4
SNB-19 = tested on: SNB-19
KM-20L2 = tested on: KM-20L2
SN12C = tested on: SN12C
HOP-92 = tested on: HOP-92
CAKI-1 = tested on: CAKI-1
HT-29 = tested on: HT-29
COLO 205 = tested on: COLO 205
DMS-273 = tested on: DMS-273
DLD-1 = tested on: DLD-1
HCC 2998 = tested on: HCC 2998
M14 = tested on: M14
HOP-62 = tested on: HOP-62
EKVX = tested on: EKVX
Malme-3M = tested on: Malme-3M
UO-31 = tested on: UO-31
KM12 = tested on: KM12
786-0 = tested on: 786-0
NCI-H23 = tested on: NCI-H23
SK-MEL-5 = tested on: SK-MEL-5
SF-539 = tested on: SF-539
SK-MEL-28 = tested on: SK-MEL-28
ACHN = tested on: ACHN
SNB-78 = tested on: SNB-78
A549 = tested on: A549
HCT-15 = tested on: HCT-15
M19-MEL = tested on: M19-MEL
XF498 = tested on: XF498
TK-10 = tested on: TK-10
OVCAR-4 = tested on: OVCAR-4
SW-620 = tested on: SW-620
RXF 393 = tested on: RXF 393
DMS-114 = tested on: DMS-114
SNB-75 = tested on: SNB-75
U-251 = tested on: U-251
A498 = tested on: A498

With `[N-]=[N+]=Nc1ncnc2c1sc(=S)n2-c1ccccc1` the GI50 (UACC-257) was > 100 µM (inactive), the GI50 (SK-MEL-2) was > 100 µM (inactive) and the GI50 (SR) was > 100 µM (inactive). The GI50 (OVCAR-8) was > 100 µM (inactive), the GI50 (SK-OV-3) was > 100 µM (inactive) and the GI50 (NCI-H460) was > 100 µM (inactive). The GI50 (SF-268) was > 100 µM (inactive), the GI50 (OVCAR-3) was > 100 µM (inactive) and the GI50 (LOX IMVI) was > 100 µM (inactive). The GI50 (NCI-H226) was > 100 µM (inactive), the GI50 (NCI-H522) was > 100 µM (inactive) and the GI50 (UACC-62) was > 100 µM (inactive). The GI50 (K562) was > 100 µM (inactive), the GI50 (OVCAR-5) was > 100 µM (inactive) and the GI50 (CCRF-CEM) was > 100 µM (inactive). For the same molecule, the GI50 (LXFL 529) was > 100 µM (inactive), the GI50 (HOP-18) was > 100 µM (inactive) and the GI50 (IGROV-1) was > 100 µM (inactive). For the same molecule, the GI50 (HL-60) was 84.9 µM (inactive), the GI50 (HCT-116) was > 100 µM (inactive) and the GI50 (RPMI-8226) was > 100 µM (inactive). The GI50 (SF-295) was > 100 µM (inactive), the GI50 (MOLT-4) was > 100 µM (inactive) and the GI50 (SNB-19) was > 100 µM (inactive). The GI50 (KM-20L2) was > 100 µM (inactive), the GI50 (SN12C) was > 100 µM (inactive) and the GI50 (HOP-92) was > 100 µM (inactive). The GI50 (CAKI-1) was > 100 µM (inactive), the GI50 (HT-29) was > 100 µM (inactive) and the GI50 (COLO 205) was > 100 µM (inactive). The GI50 (DMS-273) was > 100 µM (inactive), the GI50 (DLD-1) was > 100 µM (inactive) and the GI50 (HCC 2998) was > 100 µM (inactive). The GI50 (M14) was > 100 µM (inactive), the GI50 (HOP-62) was 21.6 µM (inactive) and the GI50 (EKVX) was > 100 µM (inactive). The GI50 (Malme-3M) was > 100 µM (inactive), the GI50 (UO-31) was > 100 µM (inactive) and the GI50 (KM12) was > 100 µM (inactive). The GI50 (786-0) was > 100 µM (inactive), the GI50 (NCI-H23) was > 100 µM (inactive) and the GI50 (SK-MEL-5) was > 100 µM (inactive). For the same molecule, the GI50 (SF-539) was > 100 µM (inactive), the GI50 (SK-MEL-28) was > 100 µM (inactive) and the GI50 (ACHN) was > 100 µM (inactive). The GI50 (SNB-78) was > 100 µM (inactive), the GI50 (A549) was > 100 µM (inactive) and the GI50 (HCT-15) was greater than 100 µM. The GI50 (M19-MEL) was > 100 µM (inactive), the GI50 (XF498) was > 100 µM (inactive) and the GI50 (TK-10) was > 100 µM (inactive). For the same molecule, the GI50 (OVCAR-4) was > 100 µM (inactive), the GI50 (SW-620) was > 100 µM (inactive) and the GI50 (RXF 393) was > 100 µM (inactive). For the same molecule, the GI50 (DMS-114) was > 100 µM (inactive), the GI50 (SNB-75) was > 100 µM (inactive) and the GI50 (U-251) was > 100 µM (inactive). The GI50 (A498) was 78.9 µM (inactive).

For `CC1(C)CC(=O)C2=C(C1)S/C(=C1/SC3=C(S1)C(=O)CC(C)(C)C3)S2`, the GI50 (UACC-257) was > 251 µM (inactive), the GI50 (SK-MEL-2) was > 251 µM (inactive) and the GI50 (SR) was > 251 µM (inactive). The GI50 (OVCAR-8) was > 251 µM (inactive), the GI50 (SK-OV-3) was > 251 µM (inactive) and the GI50 (NCI-H460) was > 251 µM (inactive). The GI50 (SF-268) was > 251 µM (inactive), the GI50 (OVCAR-3) was > 251 µM (inactive) and the GI50 (LOX IMVI) was > 251 µM (inactive). For the same molecule, the GI50 (NCI-H522) was > 251 µM (inactive), the GI50 (UACC-62) was > 251 µM (inactive) and the GI50 (K562) was > 251 µM (inactive). For the same molecule, the GI50 (CCRF-CEM) was > 251 µM (inactive), the GI50 (LXFL 529) was > 251 µM (inactive) and the GI50 (HOP-18) was > 251 µM (inactive). For the same molecule, the GI50 (IGROV-1) was > 251 µM (inactive), the GI50 (HL-60) was > 251 µM (inactive) and the GI50 (HCT-116) was > 251 µM (inactive). The GI50 (RPMI-8226) was > 251 µM (inactive), the GI50 (SF-295) was > 251 µM (inactive) and the GI50 (MOLT-4) was > 251 µM (inactive). The GI50 (SNB-19) was > 251 µM (inactive), the GI50 (KM-20L2) was > 251 µM (inactive) and the GI50 (SN12C) was > 251 µM (inactive). For the same molecule, the GI50 (HOP-92) was > 251 µM (inactive), the GI50 (HT-29) was > 251 µM (inactive) and the GI50 (COLO 205) was > 251 µM (inactive). The GI50 (DMS-273) was > 251 µM (inactive), the GI50 (DLD-1) was > 251 µM (inactive) and the GI50 (HCC 2998) was > 251 µM (inactive). The GI50 (M14) was > 251 µM (inactive), the GI50 (HOP-62) was > 251 µM (inactive) and the GI50 (EKVX) was > 251 µM (inactive). The GI50 (Malme-3M) was > 251 µM (inactive), the GI50 (UO-31) was > 251 µM (inactive) and the GI50 (KM12) was > 251 µM (inactive). The GI50 (786-0) was > 251 µM (inactive), the GI50 (NCI-H23) was > 251 µM (inactive) and the GI50 (SF-539) was > 251 µM (inactive). The GI50 (SK-MEL-28) was > 251 µM (inactive), the GI50 (ACHN) was > 251 µM (inactive) and the GI50 (SNB-78) was > 251 µM (inactive). For the same molecule, the GI50 (A549) was > 251 µM (inactive), the GI50 (HCT-15) was greater than 251 µM and the GI50 (M19-MEL) was > 251 µM (inactive). The GI50 (XF498) was > 251 µM (inactive), the GI50 (TK-10) was > 251 µM (inactive) and the GI50 (SW-620) was > 251 µM (inactive). The GI50 (RXF 393) was > 251 µM (inactive), the GI50 (DMS-114) was > 251 µM (inactive) and the GI50 (SNB-75) was > 251 µM (inactive). For the same molecule, the GI50 (U-251) was > 251 µM (inactive) and the GI50 (A498) was > 251 µM (inactive).

In the case of `C=C1C(=O)OC2/C=C(/C)C3CC(O)C(C)(CC(OC(=O)/C(C)=C/C)C12)O3` (stereo not drawn), the GI50 (UACC-257) is reported as 4.25 µM (inactive), the GI50 (SK-MEL-2) is reported as 2.49 µM (inactive) and the GI50 (OVCAR-8) is reported as 1.83 µM (inactive). For the same molecule, the GI50 (SK-OV-3) was 36.1 µM (inactive), the GI50 (NCI-H460) was 6.18 µM (inactive) and the GI50 (SF-268) was 4.2 µM (inactive). The GI50 (OVCAR-3) was 3.78 µM (inactive), the GI50 (LOX IMVI) was 1.76 µM (inactive) and the GI50 (NCI-H226) was 14.7 µM (inactive). The GI50 (NCI-H522) was 1.6 µM (inactive), the GI50 (UACC-62) was 2.03 µM (inactive) and the GI50 (K562) was 1.69 µM (inactive). For the same molecule, the GI50 (OVCAR-5) was 8.61 µM (inactive), the GI50 (CCRF-CEM) was 0.508 µM (active) and the GI50 (LXFL 529) was 2.08 µM (inactive). The GI50 (HOP-18) was 17.4 µM (inactive), the GI50 (IGROV-1) was 5.26 µM (inactive) and the GI50 (HL-60) was 0.759 µM (active). The GI50 (HCT-116) was 1.53 µM (inactive), the GI50 (RPMI-8226) was 1.83 µM (inactive) and the GI50 (SF-295) was > 39.4 µM (inactive). The GI50 (MOLT-4) was 1.91 µM (inactive), the GI50 (SNB-19) was 1.97 µM (inactive) and the GI50 (KM-20L2) was 2.32 µM (inactive). For the same molecule, the GI50 (SN12C) was 3.27 µM (inactive), the GI50 (HOP-92) was 2.98 µM (inactive) and the GI50 (CAKI-1) was 1.97 µM (inactive). The GI50 (HT-29) was 3.76 µM (inactive), the GI50 (COLO 205) was 1.52 µM (inactive) and the GI50 (DMS-273) was 2.54 µM (inactive). For the same molecule, the GI50 (DLD-1) was 1.54 µM (inactive), the GI50 (HCC 2998) was 13.2 µM (inactive) and the GI50 (M14) was 2.91 µM (inactive). For the same molecule, the GI50 (HOP-62) was 25.1 µM (inactive), the GI50 (EKVX) was 3.86 µM (inactive) and the GI50 (Malme-3M) was 2.28 µM (inactive). For the same molecule, the GI50 (UO-31) was 5.86 µM (inactive), the GI50 (KM12) was 3.33 µM (inactive) and the GI50 (786-0) was 3.29 µM (inactive). The GI50 (NCI-H23) was 4.49 µM (inactive), the GI50 (SK-MEL-5) was 4.68 µM (inactive) and the GI50 (SF-539) was 2.14 µM (inactive). For the same molecule, the GI50 (SK-MEL-28) was 2.52 µM (inactive), the GI50 (ACHN) was 2.49 µM (inactive) and the GI50 (SNB-78) was 2.61 µM (inactive). The GI50 (A549) was 6.61 µM (inactive), the GI50 (HCT-15) was 1.76 µM and the GI50 (M19-MEL) was 2.96 µM (inactive). For the same molecule, the GI50 (XF498) was 3.56 µM (inactive), the GI50 (TK-10) was 8.24 µM (inactive) and the GI50 (OVCAR-4) was 7.55 µM (inactive). For the same molecule, the GI50 (SW-620) was 1.65 µM (inactive), the GI50 (RXF 393) was 1.52 µM (inactive) and the GI50 (DMS-114) was 7.01 µM (inactive). The GI50 (SNB-75) was 9.04 µM (inactive), the GI50 (U-251) was 9.04 µM (inactive) and the GI50 (A498) was 10.4 µM (inactive).

— ChEMBL document CHEMBL1201862, “PubChem BioAssay data set” (2004)
